PubChem BioAssay AID248 (DTP/NCI, 2004)
Values joined by “and” are separate entries in the source; they are usually repeats but may differ in a detail not shown here. Equal values may be shown once. Toxic doses and inconclusive results are not listed. Cut-off read from the data, not from the text of the source: active = T/C of 150% or more; inactive = T/C below 125%.

Tested on: L1210 leukemia ip in BDF1 mice, survival T/C
Test: NCI In Vivo Anticancer Drug Screen. Data for tumor model L1210 Leukemia (intraperitoneal) in B6D2F1 (BDF1) mice
Conditions: endpoint: mean survival time, higher = longer survival
Outline: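 Read-out is survival time, reported as the treated-group measurement over the vehicle-control measurement.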

[1] = dose: 100.0 mg/kg/injection, schedule: Q04DX003 (ip), vehicle: saline with Tween-80
[2] = dose: 200.0 mg/kg/injection, schedule: Q04DX003 (ip), vehicle: saline with Tween-80
[3] = dose: 100.0 mg/kg/injection, schedule: Q01DX009 (ip), vehicle: Klucel (hydroxypropylcellulose) (HPC)
[4] = dose: 100.0 mg/kg/injection, schedule: Q04DX003 (ip), vehicle: Klucel (hydroxypropylcellulose) (HPC)
[5] = dose: 200.0 mg/kg/injection, schedule: Q01DX009 (ip), vehicle: Klucel (hydroxypropylcellulose) (HPC)
[6] = dose: 200.0 mg/kg/injection, schedule: Q04DX003 (ip), vehicle: Klucel (hydroxypropylcellulose) (HPC)
[7] = dose: 400.0 mg/kg/injection, schedule: Q01DX009 (ip), vehicle: Klucel (hydroxypropylcellulose) (HPC)
[8] = dose: 400.0 mg/kg/injection, schedule: Q04DX003 (ip), vehicle: Klucel (hydroxypropylcellulose) (HPC)
[9] = dose: 100.0 mg/kg/injection, schedule: Q01DX009 (ip), vehicle: saline
[10] = dose: 100.0 mg/kg/injection, schedule: Q04DX003 (ip), vehicle: saline
[11] = dose: 200.0 mg/kg/injection, schedule: Q04DX003 (ip), vehicle: saline
[12] = dose: 400.0 mg/kg/injection, schedule: Q04DX003 (ip), vehicle: saline
[13] = dose: 100.0 mg/kg/injection, schedule: Q01DX001 (ip), vehicle: acetone
[14] = dose: 200.0 mg/kg/injection, schedule: Q01DX001 (ip), vehicle: acetone
[15] = dose: 100.0 mg/kg/injection, schedule: Q01DX001 (ip), vehicle: Klucel (hydroxypropylcellulose) (HPC)
[16] = dose: 200.0 mg/kg/injection, schedule: Q01DX001 (ip), vehicle: Klucel (hydroxypropylcellulose) (HPC)
[17] = dose: 100.0 mg/kg/injection, schedule: Q01DX009 (ip), vehicle: water

Measured: T/C

CCCCCCCC(=N)OCC
inactive: dose: 50.0 mg/kg/injection, schedule: Q01DX009 (ip), vehicle: saline with Tween-80 97 % of control | dose: 50.0 mg/kg/injection, schedule: Q04DX003 (ip), vehicle: saline with Tween-80 104 % of control | dose: 100.0 mg/kg/injection, schedule: Q01DX001 (ip), vehicle: saline with Tween-80 94 % of control | dose: 100.0 mg/kg/injection, schedule: Q01DX009 (ip), vehicle: saline with Tween-80 110 % of control | [1] 93 % of control | dose: 200.0 mg/kg/injection, schedule: Q01DX001 (ip), vehicle: saline with Tween-80 104 % of control | [2] 87 % of control

Cc1ccc(C(=O)C(c2ccccc2)C(Cl)c2ccccc2)cc1 (stereo not drawn)
inactive: [3] 98 % of control | [4] 92 % of control | [5] 104 % of control | [6] 98 % of control | [7] 92 % of control | [8] 102 % of control

CCCN1c2c(nc(N)[nH]c2=O)NCC1CNc1ccc(C(=O)NC(CCC(=O)O)C(=O)O)cc1 (stereo not drawn)
inactive: [9] 96 % of control | [10] 108 % of control | dose: 200.0 mg/kg/injection, schedule: Q01DX009 (ip), vehicle: saline 101 % of control | [11] 97 % of control | dose: 400.0 mg/kg/injection, schedule: Q01DX009 (ip), vehicle: saline 96 % of control | [12] 101 % of control

CC(C)C1CCC(C(=O)O)CC1 (stereo not drawn)
inactive: [3] 102 % of control | [4] 96 % of control | [5] 95 % of control | [6] 100 % of control | [7] 97 % of control | [8] 103 % of control

O=C(Sc1ccccc1)C(Cl)(Cl)Cl
inactive: dose: 25.0 mg/kg/injection, schedule: Q01DX009 (ip), vehicle: saline 103 % of control | dose: 50.0 mg/kg/injection, schedule: Q01DX009 (ip), vehicle: saline 97 % of control | dose: 50.0 mg/kg/injection, schedule: Q04DX003 (ip), vehicle: saline 97 % of control | [13] 101 % of control | [9] 95 % of control | [10] 94 % of control | [14] 95 % of control

Cc1cc2ncn(CC(=O)O)c2cc1C
inactive: [10] 101 % of control | [11] 95 % of control | [12] 97 % of control

CCOc1ccc(C2CCCCCC2OS(C)(=O)=O)cc1 (stereo not drawn)
inactive: [15] 105 % of control | [3] 95 % of control | [4] 97 % of control | [16] 96 % of control | [5] 98 % of control | [6] 103 % of control | dose: 400.0 mg/kg/injection, schedule: Q01DX001 (ip), vehicle: Klucel (hydroxypropylcellulose) (HPC) 100 % of control | [7] 93 % of control | [8] 101 % of control

c1ccc(CN(CCNc2ccccc2)c2ccccc2)cc1
inactive: dose: 50.0 mg/kg/injection, schedule: Q01DX009 (ip), vehicle: water 97 % of control | [17] 94 % of control

O=C1c2ccccc2C(=O)N1CC(=O)N(C(=O)NC1CCCCC1)C1CCCCC1
inactive: dose: 100.0 mg/kg/injection, schedule: Q01DX001 (ip), vehicle: water 109 % of control | [17] 103 % of control | dose: 100.0 mg/kg/injection, schedule: Q04DX003 (ip), vehicle: water 94 % of control | dose: 200.0 mg/kg/injection, schedule: Q01DX001 (ip), vehicle: water 104 % of control | dose: 200.0 mg/kg/injection, schedule: Q01DX009 (ip), vehicle: water 95 % of control | dose: 200.0 mg/kg/injection, schedule: Q04DX003 (ip), vehicle: water 96 % of control | dose: 400.0 mg/kg/injection, schedule: Q01DX001 (ip), vehicle: water 98 % of control | dose: 400.0 mg/kg/injection, schedule: Q01DX009 (ip), vehicle: water 103 % of control | dose: 400.0 mg/kg/injection, schedule: Q04DX003 (ip), vehicle: water 97 % of control

COC1=C(Nc2ccc(C)cc2)C(=O)C(OC)=C(Nc2ccc(C)cc2)C1=O
inactive: dose: 50.0 mg/kg/injection, schedule: Q01DX001 (ip), vehicle: saline 98 % of control | dose: 100.0 mg/kg/injection, schedule: Q01DX001 (ip), vehicle: saline 93 % of control | dose: 200.0 mg/kg/injection, schedule: Q01DX001 (ip), vehicle: saline 95 % of control

CCCCCCCCCCCCCCCCSc1ccc(S(=O)(=O)N(C)C)cc1C(=O)O
inactive: [1] 98 % of control | [2] 91 % of control | dose: 400.0 mg/kg/injection, schedule: Q04DX003 (ip), vehicle: saline with Tween-80 89 % of control

COC/C(C)=C/Cl
inactive: [13] 102 % of control | [14] 100 % of control | dose: 400.0 mg/kg/injection, schedule: Q01DX001 (ip), vehicle: acetone 96 % of control

COc1ccc(/C=C/c2ccc3ccccc3[n+]2C)c(OC)c1OC
inactive: dose: 5.0 mg/kg/injection, schedule: Q01DX009 (oral), vehicle: carboxymethylcellulose (CMC) 104 % of control | dose: 5.0 mg/kg/injection, schedule: Q04DX003 (ip), vehicle: saline with Tween-80 106 % of control | dose: 10.0 mg/kg/injection, schedule: Q01DX009 (oral), vehicle: carboxymethylcellulose (CMC) 98 % of control | dose: 10.0 mg/kg/injection, schedule: Q04DX003 (ip), vehicle: saline with Tween-80 114 % of control | dose: 20.0 mg/kg/injection, schedule: Q01DX009 (oral), vehicle: carboxymethylcellulose (CMC) 106 % of control | dose: 20.0 mg/kg/injection, schedule: Q04DX003 (ip), vehicle: saline with Tween-80 108 % of control | dose: 40.0 mg/kg/injection, schedule: Q01DX009 (oral), vehicle: carboxymethylcellulose (CMC) 109 % of control | dose: 80.0 mg/kg/injection, schedule: Q01DX009 (oral), vehicle: carboxymethylcellulose (CMC) 97 % of control

O=C(Nc1ccc2ccccc2c1)c1ccccc1
inactive: dose: 100.0 mg/kg/injection, schedule: Q01DX009 (ip), vehicle: saline sonified 104 % of control | [4] 97 % of control | dose: 200.0 mg/kg/injection, schedule: Q01DX009 (ip), vehicle: saline sonified 96 % of control | [6] 93 % of control | dose: 400.0 mg/kg/injection, schedule: Q01DX009 (ip), vehicle: saline sonified 93 % of control | [8] 92 % of control

COc1cc(C2=N/C(=C\c3cccc([N+](=O)[O-])c3)C(=O)O2)cc(OC)c1OC
inactive: dose: 25.0 mg/kg/injection, schedule: Q04DX002 (ip), vehicle: saline with Tween-80 87 % of control | dose: 50.0 mg/kg/injection, schedule: Q04DX002 (ip), vehicle: saline with Tween-80 90 % of control | dose: 100.0 mg/kg/injection, schedule: Q04DX002 (ip), vehicle: saline with Tween-80 93 % of control and 89 % of control

CC(C)=NNC(=O)CC#N
inactive: [15] 86 % of control | [16] 94 % of control
